# Results reported in publication PMC6149822, “A New Series of Pyrrole-Based Chalcones: Synthesis and Evaluation of Antimicrobial Activity, Cytotoxicity, and Genotoxicity” (Molecules : A Journal of Synthetic Chemistry and Natural …, 2017).
# Tests used:
# [1] = test system: C. albicans (ATCC 90028); assay: Microdilution susceptibility assay (MIC); format: cell-based; conditions: Candida albicans, ATCC90028
# Description: (§1) Compounds 1–10 were screened for their antimicrobial activity against gram-negative bacteria, gram-positive bacteria, and yeasts, listed in Table 1. Bacteria were grown in Mueller-Hinton Broth and yeasts were grown in Sabouraud Dextrose Broth (SDB) during experiments. Overnight cultures were prepared routinely by subculturing of stock culture onto Mueller-Hinton Agar for bacteria and Sabouraud Dextrose Agar for yeasts.
# (§2) Microdilution susceptibility assay was used for the determination of antibacterial and anticandidal efficacy of compounds 1–10. Chloramphenicol and ketoconazole were used as positive controls for bacteria and yeasts, respectively. All experiments were designed according to the Clinical Laboratory Standards Institute (CLSI). All chemicals were dissolved in dimethyl sulfoxide (DMSO) to obtain stock solution (10 mg/mL). Two-fold serial dilutions (800, 400, 200...0.78 µg/mL) of the compounds were prepared from stock solutions with dH2O. 100 µL of each solution was transferred to 96-well microtiter plates and 100 µL of 10^6 CFU/mL of bacteria and 2 × 10^3 of CFU/mL yeast were added to related wells. As negative controls, wells including microorganisms without agents and wells including agents without microorganisms were used. The plates were kept at 35 °C for 18–20 h and the growth was determined with resazurin (20 mg/mL). Assays were carried out in triplicate.
# [2] = test system: E. coli (ATCC 25922); assay: Microdilution susceptibility assay (MIC); format: cell-based; conditions: Escherichia coli, ATCC25922
# Description: as §1, §2
# [3] = test system: E. faecalis (ATCC 29212); assay: Microdilution susceptibility assay (MIC); format: cell-based; conditions: Enterococcus faecalis, ATCC29212
# Description: as §1, §2
# [4] = test system: E. faecalis (ATCC 51299); assay: Microdilution susceptibility assay (MIC); format: cell-based; conditions: Enterococcus faecalis, ATCC51299
# Description: as §1, §2
# [5] = test system: K. pneumoniae (ATCC 700603); assay: Microdilution susceptibility assay (MIC); format: cell-based; conditions: Klebsiella pneumoniae, ATCC700603
# Description: as §1, §2
# [6] = test system: S. aureus (ATCC 25923); assay: Microdilution susceptibility assay (MIC); format: cell-based; conditions: Staphylococcus aureus, ATCC25923
# Description: as §1, §2
# [7] = test system: C. glabrata (ATCC 90030); assay: Microdilution susceptibility assay (MIC); format: cell-based, Candida glabrata; conditions: Nakaseomyces glabratus, ATCC90030
# Description: as §1, §2
# [8] = test system: C. parapsilosis (ATCC 22019); assay: Microdilution susceptibility assay (MIC); format: cell-based, Candida parapsilosis; conditions: Lodderomyces parapsilosis, ATCC22019
# Description: as §1, §2
# [9] = test system: C. krusei (ATCC 6258); assay: Microdilution susceptibility assay (MIC); format: cell-based, Candida krusei; conditions: Pichia kudriavzevii, ATCC6258
# Description: as §1, §2
# [10] = test system: A549 human lung adenocarcinoma cell line; assay: MTT assay; format: cell-based; conditions: Homo sapiens, A549
# Description: (§3) The anticancer effects of compounds 1–10 on A549 human lung adenocarcinoma (ATCC® CCL-185™), HepG2 human hepatocellular carcinoma (ATCC® HB-8065™), and C6 rat glioma (ATCC® CCL107™) cell lines were assessed using 3-(4,5-Dimethylthiazol-2-yl)-2,5-diphenyltetrazolium bromide (MTT) assay, whereas the selectivity of compounds 1–10 was tested using NIH/3T3 mouse embryonic fibroblast cell line (ATCC® CRL-1658™, London, UK). All cell lines were incubated according to the supplier’s recommendations. The cells were seeded as 1 × 10^4 cells into each well of the 96-well plates. MTT assay was performed as previously described. The compounds were tested between the concentrations equal to 1 mM and 0.000316 mM (1.0, 0.316, 0.10, 0.0316, 0.01, 0.00316, 0.001, 0.000316 mM). Stock solutions of compounds were prepared in dimethyl sulfoxide (DMSO) and further dilutions were made with fresh culture medium. The final DMSO concentration was under 1% [34] and cisplatin was used as a positive control. Inhibition % was calculated for each concentration according to the formula below, and IC50 values were determined by plotting a dose–response curve of inhibition % versus compound concentrations tested. All experiments were performed in quadruplicate.Inhibition % = 100 − [(ODtest compound − ODblank/ODsolvent control − ODblank)] × 100(1)
# [11] = test system: C6 rat glioma cell line; assay: MTT assay; format: cell-based; conditions: Rattus norvegicus, C6
# Description: as §3
# [12] = test system: HepG2 human hepatocellular carcinoma cell line; assay: MTT assay; format: cell-based; conditions: Homo sapiens, HepG2
# Description: as §3
# [13] = test system: NIH/3T3 mouse embryonic fibroblast cell line; assay: MTT assay; format: cell-based; conditions: Mus musculus, NIH3T3, healthy cells for selectivity
# Description: as §3
# [14] = test system: C. glabrata; assay: ATP luminescence microbial cell viability assay; format: cell-based, Candida glabrata; conditions: 24 h treatment, result in words
# Description: A model from BioTek Instruments Inc. combined with a BacTiter-Glo^TM Microbial Cell Viability assay (Promega Corp., Madison, WI, USA) was used to provide a sensitive and rapid method for determining the number of viable microbial cells in culture based on quantitation of the ATP present. […] After incubation, cultures were added into the wells (final concentration of bacteria was 5 × 10^5 CFU/mL and 2.5 × 10^6 CFU/mL for yeasts). After adding the BacTiter reagent, incubation time for bacteria and yeasts was 5 min and 15 min, respectively.
# The assay generates a “glow-type” luminescent signal, produced by the luciferase reaction. Briefly, after chemicals and strains were incubated for 24 h, 100 µL of the culture was taken from each well and mixed with the same volume of the BacTiter-Glo™ reagent in a white, opaque-walled microtiter plate. Control wells containing medium without cells were prepared to obtain a value for background luminescence. Cells without compound were used as an ATP-positive control. The microplates were further incubated under agitation for 7 min. Bioluminescence was recorded in a multi-detection microplate reader (BioTek Synergy 2 Multi-Mode Microplate Reader, BioTek Instruments, Winooski, VT, USA). In Figure 3, results were given as percentage of untreated control, which is set at 100%. Experiments were performed in triplicate and each sample was measured in four replicates.
# [15] = test system: C. krusei cells; assay: Flow cytometry live/dead analysis (TO/PI); format: cell-based, Candida krusei; conditions: 25 µg/mL, 4 h
# Excerpt: In order to investigate the effects of compounds 7 and 9 on the integrity of C. krusei cells, flow cytometry was used with BD cell viability kits. Live cells are impermeable to dyes such as PI since they have intact membranes. TO is a permeant dye and enters live and dead cells to varying degrees. The fluorescent signal from TO in viable cells allows their enumeration, even when debris in the cell preparation contaminates a scatter gate around the cells. Thus, the combination of these two dyes provides a rapid and reliable method for discriminating live and dead eukaryotic cells, including yeasts. All steps were performed according to manufacturers’ recommendations. Briefly, Candida cells were cultured at 35 °C in SDB until late log phase. The cells were centrifuged and washed with phosphate-buffered saline (PBS) at pH = 7.0. Suspensions containing 2 × 10^3 cells/mL were incubated with compounds 7 and 9, and ketoconazole as a reference drug, for 4 h at 35 °C, with shaking (200 r.p.m.). […] Suspensions of treated and untreated cells were incubated for 30 min in the presence of 2 µL of PI and 2 µL of TO, in the dark, at room temperature. The cell suspensions were analysed in a BD Accuri C6 flow cytometer (Becton-Dickinson, Mansfield, MA, USA). The cell scattergram (forward scatter: FS, side scatter: SS), the autofluorescence (without fluorocrome), and the intensity of fluorescence at FL1 (green fluorescence, 525 nm) and FL2 (red fluorescence, 620 nm) were recorded using a logarithmic scale.
SMILES,MIC [1],MIC [2],MIC [3],MIC [4],MIC [5],MIC [6],MIC [7],MIC [8],MIC [9],IC50 [10],IC50 [11],IC50 [12],IC50 [13],melting point,antifungal activity in ATP bioluminescence assay [14],Dead Cell % [15],Live Cell % [15]
"Cn1cccc1C(=O)C=Cc1ccc(-c2ccccc2Cl)o1 [Compound 5, 1-(1-Methyl-1H-pyrrol-2-yl)-3-(5-(2-chlorophenyl)furan-2-yl)prop-2-en-1-one]",200 µg/mL,400 µg/mL,200 µg/mL,200 µg/mL,200 µg/mL,400 µg/mL,200 µg/mL,100 µg/mL,200 µg/mL,311 µg/mL,> 311 µg/mL,31 µg/mL,45 µg/mL,95 to 96 °C,,,
"Cn1cccc1C(=O)C=Cc1ccc(-c2cccc(Cl)c2)o1 [Compound 6, 1-(1-Methyl-1H-pyrrol-2-yl)-3-(5-(3-chlorophenyl)furan-2-yl)prop-2-en-1-one]",200 µg/mL,100 µg/mL,200 µg/mL,200 µg/mL,200 µg/mL,200 µg/mL,200 µg/mL,100 µg/mL,200 µg/mL,98 µg/mL,103 µg/mL,98 µg/mL,38 µg/mL,121 to 122 °C,,,
"Cn1cccc1C(=O)C=Cc1ccc(-c2ccc(Cl)cc2Cl)o1 [Compound 8, 1-(1-Methyl-1H-pyrrol-2-yl)-3-(5-(2,4-dichlorophenyl)furan-2-yl)prop-2-en-1-one]",200 µg/mL,100 µg/mL,200 µg/mL,400 µg/mL,200 µg/mL,400 µg/mL,100 µg/mL,100 µg/mL,50 µg/mL,225 µg/mL,90 µg/mL,106 µg/mL,277 µg/mL,98 to 99 °C,antifungal activity close to ketoconazole,,
"CC(=O)N1CCN(c2ccc(OCC3COC(Cn4ccnc4)(c4ccc(Cl)cc4Cl)O3)cc2)CC1 (stereo not shown) [Ketoconazole, reference compound]",50 µg/mL,,,,,,100 µg/mL,50 µg/mL,50 µg/mL,,,,,,,18.4%,81.2%
